According to PMC8362065, “Easily Available, Amphiphilic Diiron Cyclopentadienyl Complexes Exhibit in Vitro Anticancer Activity in 2D and 3D Human Cancer Cells through Redox Modulation Triggered by CO Release” (Chemistry (Weinheim an Der Bergstrasse, Germany), 2021):

Columns and labels:
[1] = Solubility in D2O by 1H NMR (Me2SO2 internal standard); assay type: physicochemical; conditions: 21 °C
Experimental: Solubility in water. A suspension of the selected Fe compound (3–5 mg) in a D2O solution (0.7 mL) containing Me2SO2 as internal standard^52 (3.36 ⋅ 10^−3 M) was vigorously stirred at 21 °C for 10 h. The resulting saturated solution was filtered over celite, transferred into an NMR tube and analysed by ^1H NMR spectroscopy (delay time=3 s; number of scans=20). For the most soluble compounds (S≥0.05 M), a saturated solution was prepared in a smaller volume of D2O/Me2SO2 (0.2–0.3 mL), then filtered and diluted with pure D2O. The concentration (solubility) was calculated by the relative integral with respect to Me2SO2 (δ/ppm=3.14 (s, 6H)).

[2] = test system: human pancreatic PSN‐1 cancer cells; assay: Cellular uptake, iron by GF-AAS; assay type: cell-based; conditions: PSN‐1 cells, 50 μM, 24 h, GF-AAS (μg Fe per 10^6 cells, Figure 4A)
Experimental: (§1) In order to correlate the cytotoxic potential to the ability of the newly developed complexes to enter cells, we performed uptake experiments. […] Thus, cells were treated for 24 h with equimolar concentrations (50 μM) of the tested compounds. The cellular iron levels were quantified by means of GF‐AAS analysis, and the results, expressed as μg Fe per 10^6 cells, are shown in Figure 4A. […]
(§2) Figure 4 Intracellular detection of iron and carbon monoxide. A) Cellular uptake in PSN‐1 and HEK293 cells; cells were incubated with 50 μM of complexes for 24 h, and the cellular iron content was detected by GFAAS analysis. B) Intracellular CO levels were determined by using a fluorescent probe (BioTracker Carbon Monoxide Probe 1 Live Cell Dye®, Merck, Germany) after 30 min of treatment of PSN‐1 or HEK293 cells with 20 μM [2C]CF3SO3 and [2D]CF3SO3, or 20 μM CORM‐401 as positive control. ** P<0.01, * P<0.05.
(§3) Cellular uptake. […] Cell monolayers were washed twice with cold PBS, harvested and counted. […] After cooling, each mineralized sample was analysed for iron using a Varian AA Duo graphite furnace atomic absorption spectrometer (Varian) at the wavelength of 248.3 nm. […]

[3] = test system: untransformed HEK293 cells; assay: Cellular uptake, iron by GF-AAS; assay type: cell-based, human; conditions: 50 μM, 24 h, GF-AAS (μg Fe per 10^6 cells, Figure 4A)
Experimental: as §1, §2, §3

| Solubility [1] | Substance | Cellular iron accumulation (uptake) [2] | Cellular iron accumulation (uptake) [3] |
| --- | --- | --- | --- |
| not soluble ^[a] | [Fe2Cp2(CO)2(μ‐CO){μ‐CNEt(2‐naphthyl)}]BF4 [[4G]BF4] | – | – |
| – | [Fe2Cp2(CO)2(μ‐CO){μ‐CNMe(4‐C6H4OMe)}]CF3SO3 [[2D]CF3SO3] | able to induce cellular iron accumulation | major iron accumulation in untransformed cells with respect to pancreatic cancer cells |
